Experimental data as given in US9776972B2, “Pyrazole derivatives as arginine methyltransferase inhibitors and uses thereof” (priority 2013, dated 2017).
pIC50: −log10 of the molar value.

Experiments:
[1] = target: human PRMT3 (Homo sapiens, UniProt O60678); assay: PRMT3 Biochemical Assay (3H-SAM Flashplate, peptide substrate); conditions: single experiment or average of multiple experiments
Excerpt: S-adenosylmethionine (SAM), S-adenosylhomocysteine (SAH), bicine, Tween20, dimethylsulfoxide (DMSO), bovine skin gelatin (BSG), isopropyl-β-D-thiogalactopyranoside (IPTG), and Tris(2-carboxyethyl)phosphine hydrochloride solution (TCEP) were purchased from Sigma-Aldrich at the highest level of purity possible. ^3H-SAM was purchase from American Radiolabeled Chemicals with a specific activity of 80 Ci/mmol. 384-well streptavidin Flashplates were purchased from PerkinElmer.
Peptide containing the classic RMT substrate motif was synthesized with an N-terminal linker-affinity tag motif and a C-terminal amide cap by 21st Century Biochemicals. The peptide was purified by high-performance liquid chromatography (HPLC) to greater than 95% purity and confirmed by liquid chromatography mass spectrometry (LC-MS). The sequence was Biot-Ahx-[…]-amide (SEQ ID NO.:11).
Full-length human PRMT3 (NM_005788.3) isoform 1 transcript clone was amplified from an HEK 293 cDNA library and subcloned into pGEX-KG (GE Life Sciences). The resulting construct encodes an N-terminal GST tag and a thrombin cleavage sequence ([…] […] […] […]) (SEQ ID NO.: 12) fused directly to Cys 2 of PRMT3.
E. coli (BL21(DE3) Gold, Stratagene) made competent by the CaCl2 method were transformed with the PRMT3 construct and ampicillin selection. Protein over-expression was accomplished by growing the PRMT3 expressing E. coli clone and inducing expression with 0.3 mM IPTG at 16° C. The culture was grown for 12 hours, harvested by centrifugation, and stored at −80° C. for purification.
GST-tagged PRMT3 was eluted with 50 mM Tris, 2 mM glutathione, pH 7.1 and 50 mM Tris, 20 mM glutathione, pH 7.1. Pooled fractions were dialysed in 20 mM Tris, 50 mM NaCl, 5% glycerol, 1 mM EDTA, 1 mM DTT, pH7.5 (Buffer B) and applied to a Q Sepharose Fast Flow column. GST-tagged PRMT3 was eluted by 500 mM NaCl in buffer B. Pooled fractions were dialyzed in 25 mM phosphate buffer, 100 mM NaCl, 5% glycerol, 2 mM DTT, pH 6.8 (Buffer C) and loaded on to a ceramic hydroxyapatite column. GST-tagged PRMT3 eluted with 25-400 mM phosphate in buffer C. Protein was concentrated and buffer was exchanged to 20 mM Tris, 150 mM NaCl, 5% glycerol, 5 mM β-mercaptoethanol, pH7.8 by ultrafiltration. The purity of recovered protein was 70%.
General Procedure for PRMT3 Enzyme Assays on Peptide Substrates.
The assays were all performed in a buffer consisting of 20 mM Bicine (pH=7.6), 1 mM TCEP, 0.005% BSG, and 0.002% Tween 20, prepared on the day of use. Compounds in 100% DMSO (1 ul) were spotted into a polypropylene 384-well V-bottom plates (Greiner) using a Platemate Plus outfitted with a 384-channel head (Thermo Scientific). DMSO (1 ul) was added to Columns 11, 12, 23, 24, rows A-H for the maximum signal control and 1 ul of SAH, a known product and inhibitor of PRMT3, was added to columns 11, 12, 23, 24, rows I-P for the minimum signal control. A cocktail (40 ul) containing the PRMT3 enzyme was added by Multidrop Combi (Thermo-Fisher). The compounds were allowed to incubate with PRMT3 for 30 min at room temperature, then a cocktail (10 ul) containing SAM and peptide was added to initiate the reaction (final volume=51 ul). The final concentrations of the components were as follows: PRMT3 was 0.5 nM, ^3H-SAM was 100 nM, non-radiolabeled SAM was 1.8 uM, peptide was 330 nM, SAH in the minimum signal control wells was 1 mM, and the DMSO concentration was 2%. The assays were stopped by the addition of potassium chloride (10 ul) to a final concentration of 100 mM. 50 ul of the reaction in the 384-well polypropylene plate was then transferred to a 384-well Flashplate and the biotinylated peptides were allowed to bind to the streptavidin surface for at least 1 hour before being washed once with 0.1% Tween20 in a Biotek ELx405 plate washer. […]

[2] = tested on: mono-methyl arginine in RKO cells; assay: RKO Methylation Assay, In Cell Western (ICW) for mono-methyl arginine and DNA content; assay type: cell-based; conditions: Homo sapiens, RKO, 72 h, RKO cells, 72 hours, mono-methyl arginine, percent activation; single experiment or average of multiple experiments; read-out: EC30 (In Cell Western data, Numerical)
Excerpt: RKO adherent cells were purchased from ATCC (American Type Culture Collection), Manassas, Va., USA. DMEM/Glutamax medium, penicillin-streptomycin, heat inactivated fetal bovine serum, 0.05% trypsin and D-PBS were purchased from Life Technologies, Grand Island, N.Y., USA. Odyssey blocking buffer, 800CW goat anti-rabbit IgG (H+L) antibody, and Licor Odyssey infrared scanner were purchased from Licor Biosciences, Lincoln, Nebr., USA. Mono-methyl arginine antibody was purchased from Cell Signaling Technology, Danvers, Mass., USA. Methanol was purchased from VWR, Franklin, Mass., USA. 10% Tween 20 was purchased from KPL, Inc., Gaithersburg, Md., USA. DRAQ5 was purchased from Biostatus Limited, Leicestershire, UK.
RKO adherent cells were maintained in growth medium (DMEM/Glutamax medium supplemented with 10% v/v heat inactivated fetal bovine serum and 100 units/mL penicillin-streptomycin) and cultured at 37° C. under 5% CO2.
Cell Treatment, in Cell Western (ICW) for Detection of Mono-Methyl Arginine and DNA Content.
RKO cells were seeded in assay medium at a concentration of 20,000 cells per mL to a poly-D-lysine coated 384 well culture plate (BD Biosciences 356697) with 50 μL per well. Compound (100 nL) from a 96-well source plate was added directly to 384 well cell plate. Plates were incubated at 37° C., 5% CO2 for 72 hours. After three days of incubation, plates were brought to room temperature outside of the incubator for ten minutes and blotted on paper towels to remove cell media. 50 μL of ice cold 100% methanol was added directly to each well and incubated for 30 min at room temperature. After 30 min, plates were transferred to a Biotek EL406 plate washer and washed 2 times with 100 μL per well of wash buffer (1×PBS). Next 60 μL per well of Odyssey blocking buffer (Odyssey Buffer with 0.1% Tween 20 (v/v)) were added to each plate and incubated 1 hour at room temperature. Blocking buffer was removed and 20 μL per well of primary antibody was added (mono-methyl arginine diluted 1:200 in Odyssey buffer with 0.1% Tween 20 (v/v)) and plates were incubated overnight (16 hours) at 4° C. Plates were washed 5 times with 100 μL per well of wash buffer. Next 20 μL per well of secondary antibody was added (1:200 800CW goat anti-rabbit IgG (H+L) antibody, 1:1000 DRAQ5 (Biostatus limited) in Odyssey buffer with 0.1% Tween 20 (v/v)) and incubated for 1 hour at room temperature. The plates were washed 5 times with 100 μL per well wash buffer then 2 times with 100 μL per well of water. Plates were allowed to dry at room temperature then imaged on the Licor Odyssey machine which measures integrated intensity at 700 nm and 800 nm wavelengths. Both 700 and 800 channels were scanned.
First, the ratio for each well was determined by:
Each plate included fourteen control wells of DMSO only treatment (minimum activation) as well as fourteen control wells for maximum activation treated with 20 μM of a reference compound. The average of the ratio values for each control type was calculated and used to determine the percent activation for each test well in the plate. Reference compound was serially diluted three-fold in DMSO for a total of nine test concentrations, beginning at 20 μM. Percent activation was determined and EC30 curves were generated using triplicate wells per concentration of compound.

Chain of human PRMT3 (O60678 with tags, fused parts or gaps): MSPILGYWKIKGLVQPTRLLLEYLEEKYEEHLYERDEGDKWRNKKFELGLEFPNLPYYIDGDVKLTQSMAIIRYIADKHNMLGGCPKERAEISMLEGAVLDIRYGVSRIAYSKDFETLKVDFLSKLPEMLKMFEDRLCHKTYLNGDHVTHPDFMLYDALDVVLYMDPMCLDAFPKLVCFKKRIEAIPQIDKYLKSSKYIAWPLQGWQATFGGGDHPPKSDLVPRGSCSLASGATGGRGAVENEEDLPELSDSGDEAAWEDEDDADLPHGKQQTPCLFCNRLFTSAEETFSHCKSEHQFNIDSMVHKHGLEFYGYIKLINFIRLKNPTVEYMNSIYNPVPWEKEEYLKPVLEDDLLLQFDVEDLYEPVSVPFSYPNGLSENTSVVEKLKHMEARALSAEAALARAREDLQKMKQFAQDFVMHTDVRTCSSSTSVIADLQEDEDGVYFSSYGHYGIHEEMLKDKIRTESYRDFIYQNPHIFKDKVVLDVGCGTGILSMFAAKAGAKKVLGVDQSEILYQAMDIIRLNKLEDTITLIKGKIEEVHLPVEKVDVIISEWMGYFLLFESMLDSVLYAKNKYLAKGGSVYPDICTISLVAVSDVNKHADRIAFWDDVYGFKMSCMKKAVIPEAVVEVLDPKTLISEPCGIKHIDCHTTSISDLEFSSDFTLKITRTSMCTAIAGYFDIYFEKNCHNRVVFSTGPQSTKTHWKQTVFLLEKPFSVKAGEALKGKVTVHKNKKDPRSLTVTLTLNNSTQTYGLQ

pIC50 [1]: 5.76
Compound: CC(C)Cc1ccc(-c2n[nH]cc2CN(C)CCN)cc1 [Compound 165]
EC30 [2]: 660 nM
